Test results as given in patent publication US9392791B2, “Amide compound and use thereof for pest control” (Sumitomo Chemical Company, priority 2012, dated 2016).

What was measured:
[1] = system: Haemaphysalis longicornis; assay: Test Example 11: coated screw tube, nymphal ticks Haemaphysalis longicornis; type: in vivo; conditions: 2 mg compound in 0.2 mL acetone coated on inner wall of screw tube, non-blood-sucking nymphal ticks, after 2 days
Description: 2 mg of each of Compounds of Present Invention 1, 2, 13, 20, 21, 45 to 47, 52 to 55 and 57 and Intermediate Compound M6-13 was weighed in a screw tube (Maruemu No. 5; 27×55 mm), and 0.2 mL of acetone was added thereto and sealed with a cap to dissolve the compound. The screw tube was rotated and inverted to uniformity coat the drug solution onto the whole inner wall of the tube. After removing the cap, the solution was air-dried for about 2 hours, then non-blood-sucking nymphal ticks, Haemaphysalis longicornis (5 ticks/group) were released, and the tube was sealed with the cap. After 2 days, the number of dead ticks was examined, and the mortality was calculated according to the following equation: Mortality (%)=100×(Number of dead ticks/Number of tested ticks).

[2] = system: Musca domestica; assay: Test Example 8: treated filter paper with sucrose bait, Musca domestica female adults; type: in vivo; conditions: 500 ppm, 0.7 ml on filter paper, after 24 hours
Description: The formulations of Compounds of Present Invention 1 to 3, 9, 13 to 16 and 57 as obtained in Formulation Example 5 were diluted with water, so as to have a concentration of the active ingredient of 500 ppm, to prepare a diluted liquid for test.
A filter paper having a diameter of 5.5 cm was spread on the bottom of a polyethylene cup having the same diameter and 0.7 ml of the diluted liquid for test was added dropwise onto the filter paper, and 30 mg of sucrose was uniformly placed as bait. Into the polyethylene cup, 10 female adults of Musca domestica were released, and the cup was sealed with a lid. After 24 hours, survived and dead number of Musca domestica was examined, and the mortality was calculated.

SMILES: CCSc1ccccc1C(=O)N(C)c1ccc(C(F)(F)C(F)(F)F)cn1 [compound 13]
- mortality [1]: 100%

SMILES: CC[S+]([O-])c1cc(C(F)(F)F)ccc1C(=O)N(C)c1ccc(C(F)(F)C(F)(F)F)cn1 (stereo not shown) [compound 20]
- mortality [1]: 100%

SMILES: CC[S+]([O-])c1cc(C(F)(F)F)ccc1C(=O)N(C)c1ccc(SC(F)(F)F)cn1 (stereo not shown) [compound 21]
- mortality [1]: 100%

SMILES: CC[S+]([O-])c1ccccc1C(=O)N(C)c1ccc(SC(F)(F)F)cn1 (stereo not shown) [compound 57]
- mortality [2]: 100%
